The assay addresses Delta-type opioid receptor (Homo sapiens) (UniProt P41143). As to the kind of experiment: Compound was tested for delta-opioid receptor agonistic activity;A - found to be highly selective. The note with it: filed as agonist. The format is functional.

Delta-type opioid receptor (Homo sapiens), sequence (P41143 whole entry): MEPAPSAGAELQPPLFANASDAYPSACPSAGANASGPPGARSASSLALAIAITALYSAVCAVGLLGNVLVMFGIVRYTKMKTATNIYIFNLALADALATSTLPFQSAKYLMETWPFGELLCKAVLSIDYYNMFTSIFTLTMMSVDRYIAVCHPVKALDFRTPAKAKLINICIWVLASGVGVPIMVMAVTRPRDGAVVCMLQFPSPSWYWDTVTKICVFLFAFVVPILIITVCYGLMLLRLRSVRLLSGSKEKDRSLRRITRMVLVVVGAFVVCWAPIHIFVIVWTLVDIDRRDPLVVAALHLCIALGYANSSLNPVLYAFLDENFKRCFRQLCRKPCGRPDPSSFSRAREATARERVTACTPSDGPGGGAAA

On to `C=CCN1C[C@H](C)N([C@H](c2ccc(C(=O)N(CC)CC)cc2)c2cccc(O)c2)C[C@H]1C`, for which the Activity entry is “Agonist”.

Source of the values: ChEMBL document CHEMBL1128168, “An efficient synthesis of the benzhydrylpiperazine delta opioid agonist (+)-BW373U86” (Bioorg Med Chem Lett, 1995).
